Values of other authors, collected in patent US20180338996A1, “COMBINATION THERAPY FOR TRAUMATIC BRAIN INJURY” (UNIVERSITY OF SOUTH FLORIDA, priority 2017, published 2018).

| SMILES | adverse effects in clinical use |
| --- | --- |
| CN(CCOc1ccc(CC2SC(=O)NC2=O)cc1)c1ccccn1 (centres unmarked) [rosiglitazone] | weight gain, fluid retention, congestive heart failure, and bone fractures |
| CCc1ccc(CCOc2ccc(CC3SC(=O)NC3=O)cc2)nc1 (centres unmarked) [PG, pioglitazone] | weight gain, fluid retention, congestive heart failure, and bone fractures |
